Source: paper PMC7377239, “Cardiovascular Effects of Polychlorinated Biphenyls and Their Major Metabolites” (Environmental Health Perspectives, 2020)
Structures can show the parent of a compound that is named as a salt. Where two headings read alike, the source gives them in different places.

Test system: iCell endothelial cells (human iPSC-derived ECs)
Experiment: Tube formation (tubulogenesis) assay in iCell endothelial cells, 18 h
Format: cell-based
Details: Homo sapiens, Endothelial cell, 18 hr; for activity at 0.1 µM: 0.10 µM
Experimental: The culture conditions of iCell®-endothelial cells were as reported elsewhere ([Iwata et al. 2017]). Briefly, T75 flasks were coated with a fibronectin solution ( 3 μg/cm^2 ) followed by incubation for 1–2 h. Cells were thawed for 3 min in a 37°C water bath. Thawed cells were added to maintenance medium made of VascuLife VEGF Medium Complete Kit, excluding the supplied FBS, and iCell® Endothelial Cells Medium Supplement. The final formulation of the maintenance medium is detailed in ([Iwata et al. 2017]). The aliquoted fibronectin solution was aspirated from the T75 flasks, and cells were seeded at 1.0×10^4 cells/cm^2 . Cells were maintained at 37°C and 5% CO2 with media changes occurring every 2 d and passaged every 3–4 d using TrypLE™ Express. All experiments were conducted on cells between passages 1 and 5.
Tube formation assays were performed on Geltrex™ LDEV-free reduced growth factor basement membrane using both iCell®-endothelial cells and HUVECs in 384-well format exactly as detailed in Iwata et al. ([2017]). Negative controls included media-only and vehicle control (i.e., 0.5% vol/vol DMSO in cell culture media) wells. Positive assay controls were consistent with previously published reports ([Iwata et al. 2017]) and included TAB ( 50μM ) as a cytotoxic control, and nocodazole ( 0.01–1μM ), suramin ( 0.5–50μM ), histamine ( 0.1–100μM ), and chloroquine ( 1–500μM ) as chemicals associated with specific effects on ECs. Each test chemical was screened in triplicate for each concentration. Briefly, for iCell®-endothelial cells, starvation media consisted of VascuLife® basal medium with 4 mM L-glutamine LifeFactor and 0.1% iCell®-endothelial cells medium supplement. To counter dilution effects, a 2× concentration of the HUVEC maintenance medium supplemented with additional VEGF was created (EGM™-2 BulletKits™ at 2× concentration; also the VEGF component was replaced with 12.5 ng/mL VEGF). Geltrex™ LDEV-free reduced growth factor basement membrane was thawed overnight and dispensed into 384-well plates ( 10μL/well ) with tapping and rotating to evenly coat. The plates were incubated for 1 h in a cell culture incubator at 37°C and 5% CO2 . A 2× PCB plate (containing all of the PCBs and metabolites in dose–response) was prepared in basal media and added, 25μL per well, to the Geltrex™ coated plates. On separate plates, cells were seeded 7,500 (iPSC- ECs) or 3,500 (HUVEC) cells/well. Cells were exposed to chemicals overnight at 37°C and 5% CO2 and stained with 3× concentration of calcein AM ( 25μL /well, 6μmol/L ) for 15 min before imaging. Images were captured at 4× magnification with the FITC filter (calcein AM). Images were analyzed with the angiogenesis module software within MetaXpress™ (Molecular Devices).
Phenotypic responses were quantitatively assessed using concentration–response modeling as detailed elsewhere ([Sirenko et al. 2017]). Briefly, phenotypic readouts were normalized to vehicle controls and fit to a four-parameter logistic model in R studio software (version 3.1.1; R Development Core Team). Following EPA guidance on dose–response modeling, a cutoff of one standard deviation across means of vehicle control (i.e., 0.5% vol/vol DMSO in cell culture media) wells was applied to determine the point-of-departure (POD) values ([U.S. EPA 2012]). In the absence of a concentration–response, the highest tested concentration (i.e., 100μM ) was assigned as “no observable adverse effect level.” The concentration–response assessment R script, as well as templates for vehicle and concentration–response data, are available as a supplement to Sirenko et al. ([2017]). The ability of physicochemical properties to predict differences in PODs were evaluated by multiregression and mixed-effects modeling using R.

[1] = iPSC-EC tube formation, 0.00 µM control = 100.00, read-out: endo.mtl.18hr
[2] = iPSC-EC tube formation, 0.00 µM control = 100.00, read-out: endo.tlps.18hr
[3] = iPSC-EC tube formation, 0.00 µM control = 100.00, read-out: endo.tta.18hr
[4] = iPSC-EC tube formation, 0.00 µM control = 100.00, read-out: endo.ttl.18hr
[5] = iPSC-EC tube formation, top concentration 100.00 µM, read-out: endo.mtl.18hr POD
[6] = iPSC-EC tube formation, top concentration 100.00 µM, read-out: endo.tlps.18hr POD
[7] = iPSC-EC tube formation, top concentration 100.00 µM, read-out: endo.tta.18hr POD
[8] = iPSC-EC tube formation, top concentration 100.00 µM, read-out: endo.ttl.18hr POD
[9] = endothelial cells (endo), tube formation mtl, read-out: POD endo.mtl.18hr
[10] = endothelial cells (endo), tube formation tlps, read-out: POD endo.tlps.18hr
[11] = endothelial cells (endo), tube formation tta, read-out: POD endo.tta.18hr
[12] = endothelial cells (endo), tube formation ttl, read-out: POD endo.ttl.18hr

Row | Compound | activity at 0.01 µM [1] [%] | activity at 0.01 µM [2] [%] | activity at 0.01 µM [3] [%] | activity at 0.01 µM [4] [%] | activity at 0.1 µM [1] [%] | activity at 0.1 µM [2] [%] | activity at 0.1 µM [3] [%] | activity at 0.1 µM [4] [%] | activity at 1 µM [1] [%] | activity at 1 µM [2] [%] | activity at 1 µM [3] [%] | activity at 1 µM [4] [%] | activity at 10 µM [1] [%] | activity at 10 µM [2] [%] | activity at 10 µM [3] [%] | activity at 10 µM [4] [%] | activity at 100 µM [1] [%] | activity at 100 µM [2] [%] | activity at 100 µM [3] [%] | activity at 100 µM [4] [%] | other results
1 | O=S(=O)(O)Oc1ccc(-c2ccc(Cl)cc2)cc1 [4'-yl PCB 3 sulfate] | 99.2 | 113 | 157 | 149 | 105 | 129 | 138 | 134 | 98.2 | 137 | 128 | 120 | 74.7 | 85.4 | 81.2 | 76.8 | 60.3 | 28 | 41.8 | 44.3 | minimal effective concentration [5]: 4.33 µM; minimal effective concentration [6]: 11.7 µM; minimal effective concentration [7]: 16.8 µM; minimal effective concentration [8]: 11 µM
2 | O=C1C=CC(=O)C(c2ccc(Cl)cc2)=C1 [4-Cl-BQ, 2-(4-Chlorophenyl)benzo-2,5-quinone] | 102 | 96 | 156 | 153 | 96.3 | 114 | 135 | 131 | 77.5 | 70.1 | 111 | 109 | 68.9 | 45 | 99.9 | 77.6 | 59.2 | 9.31 | 0.43 | 0.77 | minimal effective concentration [9]: 0.38 µM; minimal effective concentration [10]: 1.04 µM; minimal effective concentration [11]: 23 µM; minimal effective concentration [12]: 11.8 µM; minimal effective concentration [5]: 0.38 µM; minimal effective concentration [6]: 1.04 µM; minimal effective concentration [7]: 23 µM; minimal effective concentration [8]: 11.8 µM
3 | Oc1ccc(-c2cccc(Cl)c2)cc1Cl [4-OH PCB11] | 108 | 105 | 164 | 164 | 111 | 99.3 | 131 | 135 | 106 | 114 | 144 | 144 | 95.5 | 119 | 87.6 | 85.5 | 52.6 | 14.8 | 9.99 | 11.5 | minimal effective concentration [5]: 17.7 µM; minimal effective concentration [6]: 52.5 µM; minimal effective concentration [7]: 15.8 µM; minimal effective concentration [8]: 16.1 µM
4 | Oc1cc(Cl)c(-c2cc(Cl)ccc2Cl)cc1Cl [4-OH PCB52] | 114 | 107 | 144 | 144 | 119 | 109 | 116 | 125 | 111 | 129 | 118 | 124 | 84.5 | 70.9 | 86 | 85.7 | 0 | 0 | 0 | 0 | minimal effective concentration [5]: 9.52 µM; minimal effective concentration [6]: 8.32 µM; minimal effective concentration [7]: 15 µM; minimal effective concentration [8]: 15.2 µM
5 | Oc1ccc(-c2cccc(Cl)c2)cc1Cl [4-OH-PCB 11] |  |  |  |  |  |  |  |  |  |  |  |  |  |  |  |  |  |  |  |  | minimal effective concentration [9]: 17.7 µM; minimal effective concentration [10]: 52.5 µM; minimal effective concentration [11]: 15.8 µM; minimal effective concentration [12]: 16.1 µM
6 | Oc1cc(Cl)c(-c2cc(Cl)ccc2Cl)cc1Cl [4-OH-PCB 52] |  |  |  |  |  |  |  |  |  |  |  |  |  |  |  |  |  |  |  |  | minimal effective concentration [9]: 9.52 µM; minimal effective concentration [10]: 8.32 µM; minimal effective concentration [11]: 15 µM; minimal effective concentration [12]: 15.2 µM
7 | COc1ccc(-c2cccc(Cl)c2)cc1Cl [4-OMe PCB11] | 115 | 108 | 168 | 169 | 114 | 108 | 134 | 137 | 113 | 122 | 139 | 145 | 95.5 | 82.3 | 105 | 106 | 88.4 | 63.4 | 101 | 100 | minimal effective concentration [5]: 100 µM; minimal effective concentration [6]: 28.4 µM; minimal effective concentration [7]: 0.00169 µM; minimal effective concentration [8]: 0.00197 µM
